In US9464291B2, “Methods and compositions for the treatment of cancer” (University of South Alabama, priority 2012, dated 2016):
Entries after “also recorded” stand apart in the source; their conditions may differ.

Key:
OPN [1] = experiment: OPN mRNA by qRT-PCR in metastatic melanoma cell lines; assay type: cell-based, human; conditions: MDA-MB-435
Procedure: This medium was replaced with fresh cyclopamine-containing medium after 12 h. […] RNA was assessed by real-time RT-PCR for OPN transcript levels.
Quantitative RT-PCR (qRT-PCR)-cDNA was generated using High Capacity Reverse Transcriptase Kit (Applied Biosystems, Foster City, Calif.). Real time PCR was performed using a Bio-Rad iQ5 Real-Time Detection system (Bio-Rad). All reactions were done as three independent replicates. All assays were done using the TaqMan Gene Expression Assays from Applied Biosystems. OPN (SPP1: Hs 00959010_m1) transcript levels were normalized to glyceraldehyde-3-phosphate dehydrogenase (Hs 99999905_m1) levels (δCT), which was used to calculate changes in OPN expression (2^−δδCT). […] GLI1 and SHH (Hs 00179843_m1) expressions were also similarly assessed with glyceraldehyde-3-phosphate dehydrogenase as an endogenous control. To analyze the knockdown effectiveness, “scrambled transfectants” of MDA-MB-435 was set as calibrator.

OPN [2] = experiment: OPN regulation and GLI1 localisation in osteoblastic cells hFOB and MC3T3-E1; assay type: cell-based
Procedure: The role of the Hedgehog pathway in regulating the expression of OPN in the two osteoblastic cell lines, hFOB and MC3T3-E1 was assessed.
Quantitative RT-PCR (qRT-PCR)-cDNA was generated using High Capacity Reverse Transcriptase Kit (Applied Biosystems, Foster City, Calif.). Real time PCR was performed using a BioRad iQ5 Real-Time Detection system (Bio-Rad, Hercules, Calif.). All reactions were done in triplicate. OPN transcript levels were normalized to GAPDH levels (dCT) which was used to calculate changes in OPN expression (2-ddCT). […] The primers used included Spp1 (OPN) (Mm 00436767_m1); Bglap (osteocalcin) (Mm 01741771_g1); IBSP (Mm 00492555_m1); PTHrP (Mm 00433057_m1); RANKL (Mm 00441906_m1); GAPDH (Mm 99999915_g1).

RAW264.7 cells = experiment: Osteoclast differentiation, TRAP assay, RAW264.7; assay type: cell-based, murine
Procedure: Cell lines—Human metastatic breast cancer cells, MDA-MB-231, were cultured in Dulbecco's Modified Eagle's Medium (DMEM/F12; Invitrogen, Carlsbad, Calif.), supplemented with 2 mM L-glutamine, 1 mM sodium pyruvate, 0.02 mM non-essential amino acids, 5% fetal bovine serum, FBS (Atlanta Biologicals, Norcross, Ga.), without antibiotics or antimycotics (cDME/F12). SUM1315 and SUM159 cells (DiMeo, T. A., et al. (2009) Cancer Res 69, 5364-5373) (Asterand, Detroit, Mich.) were cultured in DMEM/F12 supplemented with […] insulin, 5% FBS (Atlanta Biologicals) and either 10 ng/ml EGF or 1 ng/ml hydrocortisone, without antibiotics or antimycotics. The SUM1315 cells are derived from a metastasis in a patient with infiltrating ductal carcinoma; SUM159 cells were derived from a primary breast tumor with metaplastic ccarcinoma. RAW264.7 (ATCC, TIB 71) cells, a murine pre-osteoclastic line capable of differentiation and mineralization in culture (in presence of RANKL and MCSF), were grown in DMEM with L-glutamine (ATCC, 30-2002) supplemented with 10% FBS. A 2× differentiation medium (DM) was formulated for the RAW 264.7 cells comprising RAW264.7 growth medium supplemented with 20% FBS, RANKL (100 ng/ml) and M-CSF (40 ng/ml) (Matsubara, T., et al. J Bone Miner Res 25, 1068-1076). Conditioned media was harvested from breast cancer cells and mixed in a 1:1 ratio with double strength differentiation medium to assess the effect on osteoclast differentiation. 1×DM was used as control or wherever SHH (R & D Systems, Minneapolis, Minn.) or OPN (R & D Systems) was used alone. The medium on the RAW264.7 cells was replenished every 48 hours. In order to assess the effect of secreted Hh ligands, the neutralizing 5E1 antibody was used (Developmental Studies Hybridoma Bank, at the University of Iowa, Iowa). The amount of 5E1 antibody used for the studies was determined following titration of the antibody with respect to its effects on osteoclast differentiation. Medium was supplemented with 5E1 (2.5 μg/ml) and was changed on alternate days until the end of the experiment. The effect of OPN on osteoclast activity was assessed by transfecting an OPN shRNA-expressing construct on day 6 post-induction of differentiation. Fresh DM was added the following day and cells were allowed to grow for another 12 hours before termination of experiment. GLI1 expression was silenced in the SUM1315 cells using shRNA targeting GLI1 into pSuperior. gfp+neo (Oligoengine, Wash., USA). […]
Osteoclast differentiation and activity assays—Tartarate-resistant acid phosphatase (TRAP) assay was conducted for RAW 264.7 following the manufacturer's protocol (Sigma, St. Louis, Mo.). […] The percentage of area resorbed was calculated using the NIS-Elements BR. […]

ERCC1, XPD, XRCC1 = ERCC1, XPD, XRCC1 mRNA / protein levels in A2780-CP70 cells; assay type: cell-based, human; conditions: A2780-CP70

| Molecule | rescue of OPN transcript levels from cyclopamine inhibition (OPN [1]; cyclopamine 20 μM, recombinant SHH 100 nM) | OPN promoter activity (OPN [2]; hFOB and MC3T3) | numbers of TRAP stained multinucleate cells (RAW264.7 cells; DM supplemented with SHH (100 nM) or OPN (100 ng/ml) vs DM alone) | ERCC1, XPD, XRCC1 mRNA upregulation over baseline (ERCC1, XPD, XRCC1; IC50 cyclopamine 24 hours, then 30 μM cisplatin 1 hour (data not shown)) | time of highest ERCC1, XPD, XRCC1 mRNA levels after cisplatin exposure (ERCC1, XPD, XRCC1; cyclopamine pretreatment vs cisplatin alone) | ERCC1, XPD, XRCC1 mRNA levels after agent alone (ERCC1, XPD, XRCC1; levels associated with 50% cell killing, 6-72 hr) | OPN mRNA levels (OPN [1]; MCC012A, MCC012F, cyclopamine 24 h) | OPN transcript levels (OPN [2]; hFOB / pre-osteoblasts, cyclopamine) | GLI1 subcellular localisation (OPN [2]; hFOB, cyclopamine 20 μM, 24 h) | osteoclast differentiation into TRAP-positive, multinucleate osteoclasts (RAW264.7 cells; DM + cyclopamine 20 μM) | ability of MDA-MB-435 conditioned medium to induce osteoclast differentiation (RAW264.7 cells; tumor cells treated with cyclopamine) |
| --- | --- | --- | --- | --- | --- | --- | --- | --- | --- | --- | --- |
| SHH: recombinant Sonic hedgehog ligand (R & D Systems) | reverse and rescue the inhibitory effects of cyclopamine | stimulated the promoter of OPN; also recorded: upregulation in OPN promoter activity | significant (p<0.005) increase |  |  |  |  |  |  |  |  |
| CC1=C2C[C@H]3[C@@H](CC=C4C[C@@H](O)CC[C@@]43C)[C@@H]2CC[C@]12O[C@@H]1C[C@H](C)CN[C@H]1[C@H]2C [cyclopamine] |  |  |  | approximately 2 fold | 24 h | no increase; also recorded: no detected effect | decreases the levels of OPN mRNA | decreases OPN mRNA levels; also recorded: inhibited the transcription of OPN; also recorded: reduction in the levels of OPN transcript levels | keeps GLI1 sequestered in the cytosolic compartment | significantly (p<0.0001) reduced the ability of DM to elicit differentiation | significant reduction in this ability |
